Values joined by “and” are separate entries in the source; they are usually repeats but may differ in a detail not shown here. Identical values can stand only once. Like-named read-outs stand apart in the source and are kept apart here. Square brackets hold non-standard residues; d marks the D form. Peptide text beside a SMILES is read from it. Gly(N-(CH2)3-guanidino) = N=C(N)NCCCNCC(=O)O; Dap = NC[C@H](N)C(=O)O; Sar = CNCC(=O)O
Assays:
[1] = target: T1, mMC1R (Mus musculus, UniProt Q01727); assay: cAMP AlphaScreen bioassay, HEK293 cells stably expressing mMC1R; conditions: for EC50: read-out: mMC1R EC50, ± SEM, >100,000 = no agonist activity up to 100 μM; for mMC1R percent maximal stimulatory response: @ 100 μM, EC50 not determinable
T1 sequence (Q01727 whole entry): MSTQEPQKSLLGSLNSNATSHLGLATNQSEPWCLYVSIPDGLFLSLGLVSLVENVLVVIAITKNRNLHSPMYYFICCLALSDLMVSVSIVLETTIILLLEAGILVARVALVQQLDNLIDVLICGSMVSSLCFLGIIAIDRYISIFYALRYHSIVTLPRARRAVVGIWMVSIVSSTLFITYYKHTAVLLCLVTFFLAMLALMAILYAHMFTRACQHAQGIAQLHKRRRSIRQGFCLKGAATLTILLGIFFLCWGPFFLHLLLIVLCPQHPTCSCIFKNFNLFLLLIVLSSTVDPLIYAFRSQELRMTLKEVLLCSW

[2] = target: T2, mMC3R (Mus musculus, UniProt P33033); conditions: for mMC3R pA2: antagonist, Schild analysis with NDP-MSH
T2 sequence (P33033 whole entry): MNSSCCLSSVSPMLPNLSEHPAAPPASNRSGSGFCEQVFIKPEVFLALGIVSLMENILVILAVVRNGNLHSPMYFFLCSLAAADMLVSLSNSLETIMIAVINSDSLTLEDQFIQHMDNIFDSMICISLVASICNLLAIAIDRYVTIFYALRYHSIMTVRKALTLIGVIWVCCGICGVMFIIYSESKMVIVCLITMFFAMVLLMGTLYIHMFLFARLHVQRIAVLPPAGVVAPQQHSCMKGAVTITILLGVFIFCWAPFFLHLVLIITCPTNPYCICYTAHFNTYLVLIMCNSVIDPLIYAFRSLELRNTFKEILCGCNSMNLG

[3] = target: mMC5R (Mus musculus, UniProt P41149); conditions: for mMC5R pA2: antagonist, Schild analysis with NDP-MSH, ± SEM
Sequence of mMC5R (P41149 whole entry): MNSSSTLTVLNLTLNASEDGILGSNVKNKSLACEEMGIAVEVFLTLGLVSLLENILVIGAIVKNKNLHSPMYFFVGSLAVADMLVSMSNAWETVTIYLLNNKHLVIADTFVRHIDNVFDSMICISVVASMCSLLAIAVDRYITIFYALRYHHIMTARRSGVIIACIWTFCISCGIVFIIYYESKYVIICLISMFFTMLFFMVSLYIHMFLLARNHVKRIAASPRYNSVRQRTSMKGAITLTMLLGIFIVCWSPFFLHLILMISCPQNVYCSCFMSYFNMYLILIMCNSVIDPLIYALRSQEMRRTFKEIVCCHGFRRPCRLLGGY

[4] = target: T3, hMC4R (Homo sapiens, UniProt P32245); assay: cAMP AlphaScreen bioassay, HEK293 cells stably expressing hMC4R; type: cell-based; design: expressed in transfected cells; conditions: for Observed Inverse Agonism?: hMC4R, cAMP; for hMC4R pA2: antagonist pA2, Schild analysis with agonist NDP-MSH, ± SEM, <5.0 = no antagonist potency up to 10,000 nM
T3 sequence (P32245 whole entry): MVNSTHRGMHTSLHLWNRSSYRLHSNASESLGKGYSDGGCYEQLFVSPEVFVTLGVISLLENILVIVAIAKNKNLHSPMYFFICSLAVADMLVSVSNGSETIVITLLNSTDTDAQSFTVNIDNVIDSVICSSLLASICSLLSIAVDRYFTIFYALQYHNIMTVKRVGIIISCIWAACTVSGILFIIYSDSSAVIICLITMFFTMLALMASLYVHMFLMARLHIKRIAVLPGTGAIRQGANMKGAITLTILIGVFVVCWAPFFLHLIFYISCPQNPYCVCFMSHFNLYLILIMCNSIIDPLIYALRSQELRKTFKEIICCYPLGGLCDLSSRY

[5] = target: T4, mMC4R (Mus musculus, UniProt P56450); conditions: ± SEM; for mMC4R pA2: Example 1, antagonist, Schild analysis with NDP-MSH, <5.0 = no antagonist potency up to 10,000 nM
T4 sequence (P56450 whole entry): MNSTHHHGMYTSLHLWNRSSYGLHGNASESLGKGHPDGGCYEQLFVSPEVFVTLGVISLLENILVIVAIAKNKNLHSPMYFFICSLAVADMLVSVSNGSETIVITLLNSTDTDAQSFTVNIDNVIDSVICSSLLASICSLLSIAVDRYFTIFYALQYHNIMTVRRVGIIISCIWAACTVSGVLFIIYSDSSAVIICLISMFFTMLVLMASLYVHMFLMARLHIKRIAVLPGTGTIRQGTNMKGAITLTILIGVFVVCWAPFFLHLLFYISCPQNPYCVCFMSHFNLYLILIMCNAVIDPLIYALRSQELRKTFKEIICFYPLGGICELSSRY

[6] = target: T3, hMC4R; assay: 125I-NDP-MSH competitive binding assay, transfected HEK293 cells, hMC4R; conditions: binding IC50 versus control 1 (Asn) or 2 (Dap)
[7] = target: T4, mMC4R; assay: 125I-NDP-MSH competitive binding assay, transfected HEK293 cells, mMC4R; conditions: binding IC50 versus control 1 (Asn) or 2 (Dap)
[8] = target: T1, mMC1R; assay: 125I-NDP-MSH competitive binding assay, transfected HEK293 cells, mMC1R; conditions: binding IC50 versus control 1 (Asn) or 2 (Dap)
[9] = target: T2, mMC3R; assay: 125I-NDP-MSH competitive binding assay, transfected HEK293 cells, mMC3R; conditions: binding IC50 versus control 1 (Asn) or 2 (Dap)
[10] = Example 2 (Table 7, first EC50 column)
[11] = Example 2, ± SEM, <5.5 = no antagonist potency up to 10,000 nM
[12] = Example 2, basal to plateau signal, sigmoidal dose-response
[13] = Example 1, ± SEM, <5.0 = no antagonist potency up to 10,000 nM

SMILES: C[C@@H]1NC(=O)[C@H](CC(N)=O)NC(=O)[C@H](Cc2ccccc2)NC(=O)[C@H](Cc2ccccc2)NC(=O)CN(CCCNC(=N)N)C(=O)[C@@H]2CCCN2C(=O)[C@H]2CCCN2C(=O)[C@H](Cc2ccccc2)NC1=O [MDE7-26-1c, c[Pro-NArg-Phe-Phe-Asn-Ala-Phe-DPro]] (cyclo(P[Gly(N-(CH2)3-guanidino)]FFNAF[dP]))
- mMC1R pharmacology observed (Partial Agonist) ([1]; Example 2): Partial
- mMC1R partial agonist, percentage of activation relative to NDP-MSH ([1]; Example 2, maximal signal): 50% NDP-MSH

SMILES: CN1CC(=O)N[C@@H](Cc2ccccc2)C(=O)N2CCC[C@@H]2C(=O)N2CCC[C@H]2C(=O)N[C@@H](CCCNC(=N)N)C(=O)N[C@@H](Cc2ccccc2)C(=O)N[C@@H](Cc2ccccc2)C(=O)N[C@@H](CC(N)=O)C1=O [MDE7-26-4c, c[Pro-Arg-Phe-Phe-Asn-NAla-Phe-DPro]] (cyclo(PRFFN[Sar]F[dP]))
- EC50 [1, 10]: 1 µM

SMILES: C[C@@H]1NC(=O)[C@H](CC(N)=O)NC(=O)[C@H](Cc2ccccc2)NC(=O)[C@H](Cc2ccccc2)NC(=O)[C@H](CCCNC(=N)N)NC(=O)[C@@H]2CCCN2C(=O)[C@H]2CCCN2C(=O)CN(Cc2ccccc2)C1=O [MDE7-26-5c, c[Pro-Arg-Phe-Phe-Asn-Ala-NPhe-DPro]]
- mMC3R percent maximal stimulatory response ([2]; Example 2, @ 100 μM): 60% @
- mMC1R percent maximal stimulatory response ([1]; Example 2): 85% @

SMILES: C[C@@H]1NC(=O)[C@H](CN)NC(=O)[C@H](Cc2ccccc2)NC(=O)[C@H](Cc2ccccc2)NC(=O)[C@H](CCCNC(=N)N)NC(=O)[C@@H]2CCCN2C(=O)[C@H]2CCCN2C(=O)CN(Cc2ccccc2)C1=O [MDE8-108-7c, c[Pro-Arg-Phe-Phe-Dap-Ala-NPhe-DPro]]
- mMC5R inverse agonist, percent decrease from basal [3]: −10%

SMILES: C[C@@H]1NC(=O)[C@H](CN)NC(=O)[C@H](Cc2ccccc2)NC(=O)CN(Cc2ccccc2)C(=O)[C@H](CCCNC(=N)N)NC(=O)[C@@H]2CCCN2C(=O)[C@H]2CCCN2C(=O)[C@H](Cc2ccccc2)NC1=O [MDE9-32c, c[Pro-Arg-NPhe-Phe-Dap-Ala-Phe-DPro]]
- mMC3R pA2 [2, 11]: 6.9 ± 0.3
- mMC5R pharmacology observed (Partial Agonist / Inverse Agonist) ([3]; Example 2): Partial
- mMC1R pharmacology observed (Partial Agonist) ([1]; Example 2): Partial

SMILES: C[C@@H]1NC(=O)[C@H](CC(N)=O)NC(=O)[C@H](Cc2ccccc2)NC(=O)CN(Cc2ccccc2)C(=O)[C@H](CCCNC(=N)N)NC(=O)[C@@H]2CCCN2C(=O)[C@H]2CCCN2C(=O)[C@H](Cc2ccccc2)NC1=O [MDE9-77c, c[Pro-Arg-NPhe-Phe-Asn-Ala-Phe-DPro]]
- mMC3R pA2 [2, 11]: 5.8 ± 0.1
- mMC5R pharmacology observed (Partial Agonist / Inverse Agonist) ([3]; Example 2): Inverse
- mMC5R inverse agonist, percentage change from basal ([3]; Example 2, @ 100 μM, no sigmoidal dose-response curve): −10% @
- EC50 [1, 10]: 0.24 µM

SMILES: C[C@@H]1NC(=O)[C@H](CC(N)=O)NC(=O)CN(Cc2ccccc2)C(=O)[C@H](Cc2ccccc2)NC(=O)[C@H](CCCNC(=N)N)NC(=O)[C@@H]2CCCN2C(=O)[C@H]2CCCN2C(=O)[C@H](Cc2ccccc2)NC1=O [MDE9-88c, c[Pro-Arg-Phe-NPhe-Asn-Ala-Phe-DPro]]
- mMC3R pA2 [2, 11]: 6.0 ± 0.1
- mMC5R pharmacology observed (Partial Agonist / Inverse Agonist) ([3]; Example 2): Inverse
- mMC5R pA2 ([3]; Example 2): 6.1 and 6.1 ± 0.1
- mMC5R inverse agonist, percent decrease from basal [3, 12]: −10%
- mMC1R pharmacology observed (Partial Agonist) ([1]; Example 2): Partial

SMILES: C[C@@H]1NC(=O)[C@H](CN)NC(=O)CN(Cc2ccccc2)C(=O)[C@H](Cc2ccccc2)NC(=O)[C@H](CCCNC(=N)N)NC(=O)[C@@H]2CCCN2C(=O)[C@H]2CCCN2C(=O)[C@H](Cc2ccccc2)NC1=O [MDE9-93c, c[Pro-Arg-Phe-NPhe-Dap-Ala-Phe-DPro]]
- mMC3R pA2 [2, 11]: 7.1 ± 0.1
- mMC5R pharmacology observed (Partial Agonist / Inverse Agonist) ([3]; Example 2): Inverse
- mMC5R inverse agonist, percent decrease from basal [3, 12]: −10%
- mMC1R pharmacology observed (Partial Agonist) ([1]; Example 2): Partial

SMILES: C[C@@H]1NC(=O)CN(CCN)C(=O)[C@H](Cc2ccccc2)NC(=O)[C@H](Cc2ccccc2)NC(=O)[C@H](CCCNC(=N)N)NC(=O)[C@@H]2CCCN2C(=O)[C@H]2CCCN2C(=O)[C@H](Cc2ccccc2)NC1=O [MDE9-111c, c[Pro-Arg-Phe-Phe-NDab-Ala-Phe-DPro]]
- mMC5R inverse agonist, percent decrease from basal [3]: −10%
- mMC1R percent maximal stimulatory response ([1]; Example 2): 60% @

SMILES: C[C@@H]1NC(=O)[C@H](CC(N)=O)NC(=O)[C@H](Cc2ccccc2)NC(=O)[C@H](Cc2ccccc2)NC(=O)[C@H](CCCNC(=N)N)NC(=O)[C@@H]2CCCN2C(=O)[C@H]2CCCN2C(=O)[C@H](Cc2ccccc2)NC1=O [MDE 6-82-3c, c[Pro-Arg-Phe-Phe-Asn-Ala-Phe-DPro]]
- Observed Inverse Agonism? [4]: Yes

SMILES: CC(C)[C@@H]1NC(=O)[C@H](CN)NC(=O)[C@H](Cc2ccccc2)NC(=O)[C@H](Cc2ccccc2)NC(=O)[C@H](CCCNC(=N)N)NC(=O)[C@@H]2CCCN2C(=O)[C@H]2CCCN2C(=O)[C@H](Cc2ccccc2)NC1=O [ZMK 2-85, c[Pro-Arg-Phe-Phe-Dap-Val-Phe-DPro]]
- mMC3R pA2 [2, 13]: 6.1 and 6.1 ± 0.03
- mMC5R pA2 ([3]; Example 1, reported herein for the first time): 6.3 and 6.3 ± 0.03
- hMC4R pA2 [4]: 7.6 and 7.6 ± 0.06
- Observed Inverse Agonism? [4]: Yes
- mMC4R pA2 [5]: 7.5

SMILES: C[C@@H]1NC(=O)[C@H](CC(N)=O)NC(=O)[C@H](Cc2ccccc2)NC(=O)[C@H](Cc2ccccc2)NC(=O)[C@H](Cc2c[nH]cn2)NC(=O)[C@@H]2CCCN2C(=O)[C@H]2CCCN2C(=O)[C@H](Cc2ccccc2)NC1=O [ZMK 2-96, c[Pro-His-Phe-Phe-Asn-Ala-Phe-DPro]] (cyclo(PHFFNAF[dP]))
- hMC4R Fold Diff [6]: 300
- mMC4R Fold Diff [7]: 300
- hMC4R pA2 [4]: 5.8 and 5.8 ± 0.2
- Observed Inverse Agonism? [4]: Yes
- mMC4R pA2 [5]: 5.3 and 5.3 ± 0.1

SMILES: C[C@@H]1NC(=O)[C@H](CC(N)=O)NC(=O)[C@H](Cc2ccccc2)NC(=O)[C@H](Cc2ccc(O)cc2)NC(=O)[C@H](CCCNC(=N)N)NC(=O)[C@@H]2CCCN2C(=O)[C@H]2CCCN2C(=O)[C@H](Cc2ccccc2)NC1=O [ZMK 2-110, c[Pro-Arg-Tyr-Phe-Asn-Ala-Phe-DPro]] (cyclo(PRYFNAF[dP]))
- mMC3R pA2 [2, 13]: 5.8 and 5.8 ± 0.2
- hMC4R Fold Diff [6]: 2000
- mMC4R Fold Diff [7]: 100
- mMC5R pharmacology observed in agonist assay (Inverse Agonist) ([3]; Example 1): Inverse
- hMC4R pA2 [4]: 6.5 and 6.5 ± 0.2
- Observed Inverse Agonism? [4]: Yes
- mMC4R pA2 [5]: 6.1 and 6.1 ± 0.03

SMILES: C[C@@H]1NC(=O)[C@H](CC(N)=O)NC(=O)[C@H](Cc2ccccc2)NC(=O)[C@H](Cc2ccccc2)NC(=O)[C@H](CS)NC(=O)[C@@H]2CCCN2C(=O)[C@H]2CCCN2C(=O)[C@H](Cc2ccccc2)NC1=O [ZMK 3-18, c[Pro-Cys-Phe-Phe-Asn-Ala-Phe-DPro]] (cyclo(PCFFNAF[dP]))
- mMC3R EC50 (nM) ([2]; Example 1, agonist, ± SEM, >100,000 = no agonist activity up to 100 μM): unable to stimulate
- hMC4R Fold Diff [6]: 300
- mMC4R Fold Diff [7]: 90
- mMC5R pharmacology observed in agonist assay (Inverse Agonist) ([3]; Example 1): inverse agonist activity
- mMC5R inverse agonist, percent change from basal ([3]; Example 1, @ 100 μM, no sigmoidal dose-response curve): −32%
- hMC4R pA2 [4]: 5.8 and 5.8 ± 0.2
- Observed Inverse Agonism? [4]: No
- mMC4R EC50 (nM) ([5]; Example 1, agonist, >100,000 = no agonist activity up to 100 μM): unable to stimulate
- mMC4R pA2 [5]: 5.9
- mMC1R percent maximal stimulatory response ([1]; Example 1, relative to NDP-MSH signal): 46%
- mMC1R Fold Diff [8]: 3

SMILES: C[C@@H]1NC(=O)[C@H](CN)NC(=O)[C@H](Cc2ccccc2)NC(=O)[C@H](Cc2ccccc2)NC(=O)[C@H](CS)NC(=O)[C@@H]2CCCN2C(=O)[C@H]2CCCN2C(=O)[C@H](Cc2ccccc2)NC1=O [ZMK 3-20, c[Pro-Cys-Phe-Phe-Dap-Ala-Phe-DPro]] (cyclo(PCFF[Dap]AF[dP]))
- hMC4R Fold Diff [6]: 2100
- mMC4R Fold Diff [7]: 5200
- Observed Inverse Agonism? [4]: No
- hMC4R agonist stimulation ([4]; up to 100 μM concentrations): unable to stimulate
- mMC3R Fold Diff [9]: 15
- mMC1R stimulation of the receptor, % of the NDP-MSH control ([1]; full agonist, maximal stimulation): 98%
- EC50 ([1]; Example 1, agonist): 4 µM
- mMC1R Fold Diff [8]: 6

Source: patent US20210179666A1, “CYCLIC PEPTIDES AND METHODS OF USE THEREOF” (Regents of the University of Minnesota, priority 2019, published 2021)
